Several values for one entry are separate records, joined by “and”; a condition that tells them apart may be missing. Identical values can stand only once. Toxic doses and inconclusive results are not listed.

This assay relates to P388 leukemia ip, CD2F1 mice, survival T/C. Description: NCI In Vivo Anticancer Drug Screen. Data for tumor model P388 Leukemia (intraperitoneal) in CD2F1 (CDF1) mice. The conditions noted are these: endpoint: median survival time, higher = longer survival. The gist of the method:
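Mice carrying the transplanted tumor received test compound or vehicle. Survival was recorded in each group, and the value is the treated-group measurement divided by that of the vehicle-treated control group.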

Where [1] appears, read: dose: 6.25 mg/kg/injection, schedule: Q01DX009 (ip), vehicle: saline.
[2] abbreviates: dose: 25.0 mg/kg/injection, schedule: Q01DX009 (ip), vehicle: saline.
The mark [3] stands for this setting: dose: 50.0 mg/kg/injection, schedule: Q01DX009 (ip), vehicle: saline.
Where [4] appears, read: dose: 100.0 mg/kg/injection, schedule: Q01DX009 (ip), vehicle: saline.
[5] abbreviates: dose: 200.0 mg/kg/injection, schedule: Q01DX009 (ip), vehicle: saline.
The mark [6] stands for this setting: dose: 60.0 mg/kg/injection, schedule: Q01DX005 (ip), vehicle: saline with Tween-80.
[7] abbreviates: dose: 120.0 mg/kg/injection, schedule: Q01DX005 (ip), vehicle: saline with Tween-80.
[8] abbreviates: dose: 100.0 mg/kg/injection, schedule: Q01DX001 (ip), vehicle: saline with Tween-80.
Setting [9] is: dose: 50.0 mg/kg/injection, schedule: Q01DX005 (ip), vehicle: saline with Tween-80.

`Nc1n[n+](-c2ccccc2)no1`: the T/C by setting is: (dose: 1.56 mg/kg/injection, schedule: Q01DX009 (ip), vehicle: water) 110 % of control; (dose: 1.56 mg/kg/injection, schedule: Q03HX015 (ip), vehicle: water) 117 % of control; (dose: 3.12 mg/kg/injection, schedule: Q01DX005 (ip), vehicle: water) 104 % of control; (dose: 3.12 mg/kg/injection, schedule: Q03HX015 (ip), vehicle: water) 119 % of control; (dose: 3.13 mg/kg/injection, schedule: Q01DX009 (ip), vehicle: water) 104 % of control and 108 % of control and 117 % of control; (dose: 3.13 mg/kg/injection, schedule: Q03HX015 (ip), vehicle: water) 115 % of control. Moreover, the T/C by setting is: under setting [1], 123 % of control; (dose: 6.25 mg/kg/injection, schedule: Q01DX009 (ip), vehicle: water) 117 % of control and 118 % of control; (dose: 6.25 mg/kg/injection, schedule: Q03HX003 (ip), vehicle: water) 112 % of control; (dose: 12.5 mg/kg/injection, schedule: Q03HX003 (ip), vehicle: water) 117 % of control; (dose: 25.0 mg/kg/injection, schedule: Q01DX001 (ip), vehicle: water) 104 % of control; under setting [2], 178 % of control. The T/C reads like this: (dose: 25.0 mg/kg/injection, schedule: Q01DX009 (ip), vehicle: water) 169 % of control and 189 % of control and 195 % of control; (dose: 25.0 mg/kg/injection, schedule: Q03HX003 (ip), vehicle: water) 117 % of control; (dose: 25.0 mg/kg/injection, schedule: Q03HX015 (ip), vehicle: water) 161 % of control and 183 % of control; (dose: 50.0 mg/kg/injection, schedule: Q01DX001 (ip), vehicle: water) 120 % of control; under setting [3], 214 % of control; (dose: 50.0 mg/kg/injection, schedule: Q03HX003 (ip), vehicle: water) 123 % of control. The T/C (dose: 100.0 mg/kg/injection, schedule: Q01DX001 (ip), vehicle: water) was 114 % of control.

As to `CC(=O)Nc1c(Cl)cc2c(c1Cl)Cc1cc(N(CCO)CCO)ccc1-2`, the T/C is, setting by setting: under setting [1], 97 % of control; (dose: 12.5 mg/kg/injection, schedule: Q01DX009 (ip), vehicle: saline) 93 % of control; under setting [2], 93 % of control; under setting [3], 94 % of control.

Consider `CN(C)c1ccc(/C=C/c2ccncc2)cc1`, for which the T/C by setting is: (dose: 1.56 mg/kg/injection, schedule: Q01DX009 (ip), vehicle: saline with Tween-80) 104 % of control and 106 % of control; (dose: 3.13 mg/kg/injection, schedule: Q01DX009 (ip), vehicle: saline with Tween-80) 104 % of control and 113 % of control; (dose: 6.25 mg/kg/injection, schedule: Q01DX009 (ip), vehicle: saline with Tween-80) 102 % of control and 94 % of control.

With `C=CCN(CC=C)c1nc(N)nc(N)n1`, the T/C under setting [3] was 96 % of control, the T/C under setting [4] was 90 % of control and the T/C under setting [5] was 121 % of control.

With `Cc1onc(-c2ccccc2)c1C(=O)c1ccccc1`, the T/C runs as follows: under setting [3], 99 % of control; under setting [4], 100 % of control; under setting [5], 99 % of control.

For the compound `COc1ccc(CC(CO)NC(=O)c2ccccc2)cc1` (stereo not given), the T/C runs as follows: (dose: 100.0 mg/kg/injection, schedule: Q04DX002 (ip), vehicle: Klucel (hydroxypropylcellulose) (HPC)) 101 % of control; (dose: 200.0 mg/kg/injection, schedule: Q04DX002 (ip), vehicle: Klucel (hydroxypropylcellulose) (HPC)) 108 % of control; (dose: 400.0 mg/kg/injection, schedule: Q04DX002 (ip), vehicle: Klucel (hydroxypropylcellulose) (HPC)) 94 % of control.

On to `CC(=O)C1C(=O)C(=O)N(c2ccccc2C)C1=O` (stereo not given), for which the T/C runs as follows: (dose: 50.0 mg/kg/injection, schedule: Q01DX009 (ip), vehicle: Klucel (hydroxypropylcellulose) (HPC)) 105 % of control; under setting [6], 103 % of control; (dose: 100.0 mg/kg/injection, schedule: Q01DX009 (ip), vehicle: Klucel (hydroxypropylcellulose) (HPC)) 107 % of control; under setting [7], 100 % of control; (dose: 200.0 mg/kg/injection, schedule: Q01DX009 (ip), vehicle: Klucel (hydroxypropylcellulose) (HPC)) 110 % of control.

For `O=C1C(Cl)=C(NC(CO)(CO)CO)C(=O)c2ccccc21`, the T/C by setting is: (dose: 25.0 mg/kg/injection, schedule: Q01DX001 (ip), vehicle: saline with Tween-80) 92 % of control; (dose: 50.0 mg/kg/injection, schedule: Q01DX001 (ip), vehicle: saline with Tween-80) 93 % of control; under setting [8], 101 % of control.

For `O=C(O)C(O)C(O)C(=O)O.[Co+3].[NH-]CC[NH-].[NH-]CC[NH-].[NH-]CC[NH-]` (stereo not given), the T/C by setting is: under setting [9], 104 % of control; (dose: 100.0 mg/kg/injection, schedule: Q01DX005 (ip), vehicle: saline with Tween-80) 100 % of control.

Turning to `Cc1cc(Br)c2nsnc2c1[N+](=O)[O-]`, the T/C under setting [9] was 122 % of control.

On to `Cc1c2cc(Cl)c3ccccc3c2c[n+]2ccccc12`, for which the T/C runs as follows: (dose: 16.5 mg/kg/injection, schedule: Q01DX009 (ip), vehicle: saline) 111 % of control; under setting [2], 121 % of control; (dose: 37.5 mg/kg/injection, schedule: Q01DX009 (ip), vehicle: saline) 124 % of control; (dose: 50.0 mg/kg/injection, schedule: Q04DX003 (ip), vehicle: saline with Tween-80) 113 % of control; (dose: 100.0 mg/kg/injection, schedule: Q04DX003 (ip), vehicle: saline with Tween-80) 121 % of control and 123 % of control; (dose: 200.0 mg/kg/injection, schedule: Q04DX003 (ip), vehicle: saline with Tween-80) 92 % of control. The T/C (dose: 400.0 mg/kg/injection, schedule: Q04DX003 (ip), vehicle: saline with Tween-80) is 108 % of control.

On to `CNc1cc(C)c2ccc(N(C)C)cc2n1`, for which the T/C was 98 % of control (dose: 7.5 mg/kg/injection, schedule: Q01DX005 (ip), vehicle: Klucel (hydroxypropylcellulose) (HPC)); 102 % of control (dose: 15.0 mg/kg/injection, schedule: Q01DX005 (ip), vehicle: Klucel (hydroxypropylcellulose) (HPC)); 101 % of control (dose: 30.0 mg/kg/injection, schedule: Q01DX005 (ip), vehicle: Klucel (hydroxypropylcellulose) (HPC)); 93 % of control (dose: 60.0 mg/kg/injection, schedule: Q01DX005 (ip), vehicle: Klucel (hydroxypropylcellulose) (HPC)).

Regarding `O=C1C=CC(Nc2ccccc2[N+](=O)[O-])C1Nc1ccccc1[N+](=O)[O-]` (stereo not given), the T/C under setting [6] is 114 % of control and the T/C under setting [7] is 113 % of control.

For the compound `CC1=CC(O)(C2(C)OC(C)(C)OC2=O)CCC1` (stereo not given), the T/C by setting is: (dose: 100.0 mg/kg/injection, schedule: Q01DX001 (ip), vehicle: saline) 100 % of control; (dose: 200.0 mg/kg/injection, schedule: Q01DX001 (ip), vehicle: saline) 100 % of control; (dose: 400.0 mg/kg/injection, schedule: Q01DX001 (ip), vehicle: saline) 100 % of control.

For `Clc1ccc(C[P+](c2ccccc2)(c2ccccc2)c2ccccc2)c(Cl)c1`, the T/C was 109 % of control (dose: 1.25 mg/kg/injection, schedule: Q01DX009 (ip), vehicle: saline sonified); 109 % of control (dose: 2.5 mg/kg/injection, schedule: Q01DX009 (ip), vehicle: saline sonified); 118 % of control (dose: 5.0 mg/kg/injection, schedule: Q01DX009 (ip), vehicle: saline sonified).

On to `COc1ccc(OC)c(CC(C)N)c1` (stereo not given), for which the T/C (dose: 60.0 mg/kg/injection, schedule: Q01DX005 (ip), vehicle: saline) is 98 % of control and the T/C (dose: 120.0 mg/kg/injection, schedule: Q01DX005 (ip), vehicle: saline) is 93 % of control.

As to `C1=CN2C(c3ccccc3)=NN(c3ccccc3)[C@@H]2c2ccccc21`, the T/C (dose: 1.87 mg/kg/injection, schedule: Q01DX005 (ip), vehicle: saline with Tween-80) is 102 % of control; the T/C (dose: 3.75 mg/kg/injection, schedule: Q01DX005 (ip), vehicle: saline with Tween-80) is 102 % of control; the T/C (dose: 7.5 mg/kg/injection, schedule: Q01DX005 (ip), vehicle: saline with Tween-80) was 103 % of control and 93 % of control.

For the compound `N#C/C(=C\c1ccccc1)CN1CCCCC1`, the T/C under setting [8] was 110 % of control and the T/C (dose: 200.0 mg/kg/injection, schedule: Q01DX001 (ip), vehicle: saline with Tween-80) is 122 % of control.

As for `O=Cc1c(Br)n(-c2ccccc2)c2ccccc12`, the T/C (dose: 100.0 mg/kg/injection, schedule: Q01DX001 (ip), vehicle: Klucel (hydroxypropylcellulose) (HPC)) is 102 % of control; the T/C (dose: 200.0 mg/kg/injection, schedule: Q01DX001 (ip), vehicle: Klucel (hydroxypropylcellulose) (HPC)) was 100 % of control; the T/C (dose: 400.0 mg/kg/injection, schedule: Q01DX001 (ip), vehicle: Klucel (hydroxypropylcellulose) (HPC)) is 100 % of control.

Source of the values: PubChem BioAssay AID330 (DTP/NCI, 2004).
